The kinase profiling compilation of Christmann-Franck et al. (2016)

Key:
Experiment in all cases: KINOMEscan competition binding
Settings in all cases: compound 10.0 µM
AURKB (human) = AURKB (human) (UniProt Q96GD4)
CDK16 (human) = CDK16 (human) (UniProt Q00536)
CDK9 (human) = CDK9 (human) (UniProt P50750)
CHUK (human) = CHUK (human) (UniProt O15111)
CSNK2A1 (human) = CSNK2A1 (human) (UniProt P68400)
DAPK1 (human) = DAPK1 (human) (UniProt P53355)
[1] = test system: EGFR (human), P00533 [A750P; 747-749 del]
EPHA7 (human) = EPHA7 (human) (UniProt Q15375)
FLT4 (human) = FLT4 (human) (UniProt P35916)
FRK (human) = FRK (human) (UniProt P42685)
ICK (human) = ICK (human) (UniProt Q9UPZ9)
IRAK4 (human) = IRAK4 (human) (UniProt Q9NWZ3)
MAP3K13 (human) = MAP3K13 (human) (UniProt O43283)
MAP3K7 (human) = MAP3K7 (human) (UniProt O43318)
MAP3K9 (human) = MAP3K9 (human) (UniProt P80192)
MAPK12 (human) = MAPK12 (human) (UniProt P53778)
MAPK6 (human) = MAPK6 (human) (UniProt Q16659)
MTOR (human) = MTOR (human) (UniProt P42345)
NEK5 (human) = NEK5 (human) (UniProt Q6P3R8)
PAK3 (human) = PAK3 (human) (UniProt O75914)
PAK6 (human) = PAK6 (human) (UniProt Q9NQU5)
PIK3C2B (human) = PIK3C2B (human) (UniProt O00750)
PIK3CB (human) = PIK3CB (human) (UniProt P42338)
PRKCE (human) = PRKCE (human) (UniProt Q02156)
PRKD1 (human) = PRKD1 (human) (UniProt Q15139)
PRPF4B (human) = PRPF4B (human) (UniProt Q13523)
PTK2 (human) = PTK2 (human) (UniProt Q05397)
RIPK4 (human) = RIPK4 (human) (UniProt P57078)
RPS6KA5 KD1 (human) = RPS6KA5 KD1 (human) (UniProt O75582)
RPS6KA6 KD1 (human) = RPS6KA6 KD1 (human) (UniProt Q9UK32)
SGK110 (human) = SGK110 (human) (UniProt P0C264)
SIK2 (human) = SIK2 (human) (UniProt Q9H0K1)
SRPK2 (human) = SRPK2 (human) (UniProt P78362)
STK24 (human) = STK24 (human) (UniProt Q9Y6E0)
STK32C (human) = STK32C (human) (UniProt Q86UX6)
TIE1 (human) = TIE1 (human) (UniProt P35590)
TNK2 (human) = TNK2 (human) (UniProt Q07912)
TNNI3K (human) = TNNI3K (human) (UniProt Q59H18)
TSSK1B (human) = TSSK1B (human) (UniProt Q9BXA7)
CaMK1 (human) = CaMK1 (human) (UniProt Q14012)

IRAK4 (human), sequence (Q9NWZ3 whole entry, looked up): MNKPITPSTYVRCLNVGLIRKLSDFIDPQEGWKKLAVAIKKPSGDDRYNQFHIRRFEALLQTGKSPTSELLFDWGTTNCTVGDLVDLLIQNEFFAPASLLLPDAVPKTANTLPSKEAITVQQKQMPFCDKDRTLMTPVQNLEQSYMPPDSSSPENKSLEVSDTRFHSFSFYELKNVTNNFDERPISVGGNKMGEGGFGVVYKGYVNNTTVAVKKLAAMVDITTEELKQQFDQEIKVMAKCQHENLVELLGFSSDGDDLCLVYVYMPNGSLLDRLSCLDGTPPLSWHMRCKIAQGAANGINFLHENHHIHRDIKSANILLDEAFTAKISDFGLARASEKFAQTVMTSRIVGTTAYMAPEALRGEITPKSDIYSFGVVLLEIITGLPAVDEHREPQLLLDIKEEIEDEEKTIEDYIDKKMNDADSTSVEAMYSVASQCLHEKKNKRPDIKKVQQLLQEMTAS
MAPK6 (human), sequence (Q16659 whole entry, looked up): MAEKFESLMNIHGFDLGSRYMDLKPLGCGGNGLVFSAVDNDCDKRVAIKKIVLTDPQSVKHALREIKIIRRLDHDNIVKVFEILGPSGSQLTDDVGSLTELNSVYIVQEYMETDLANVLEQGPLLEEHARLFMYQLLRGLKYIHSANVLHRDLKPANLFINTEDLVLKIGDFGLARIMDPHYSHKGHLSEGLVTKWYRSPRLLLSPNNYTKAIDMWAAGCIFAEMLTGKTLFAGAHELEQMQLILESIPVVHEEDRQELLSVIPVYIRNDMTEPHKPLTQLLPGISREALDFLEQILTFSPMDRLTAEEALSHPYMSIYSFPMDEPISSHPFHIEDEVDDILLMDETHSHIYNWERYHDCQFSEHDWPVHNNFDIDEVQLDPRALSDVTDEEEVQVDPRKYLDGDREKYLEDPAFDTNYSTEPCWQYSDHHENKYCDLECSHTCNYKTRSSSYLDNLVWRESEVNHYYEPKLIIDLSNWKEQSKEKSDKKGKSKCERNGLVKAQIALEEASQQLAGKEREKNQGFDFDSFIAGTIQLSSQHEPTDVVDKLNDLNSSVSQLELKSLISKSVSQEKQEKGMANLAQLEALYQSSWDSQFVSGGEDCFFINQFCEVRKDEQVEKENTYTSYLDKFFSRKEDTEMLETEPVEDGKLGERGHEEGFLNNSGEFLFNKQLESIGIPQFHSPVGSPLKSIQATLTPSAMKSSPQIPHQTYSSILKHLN
CHUK (human), sequence (O15111 whole entry, looked up): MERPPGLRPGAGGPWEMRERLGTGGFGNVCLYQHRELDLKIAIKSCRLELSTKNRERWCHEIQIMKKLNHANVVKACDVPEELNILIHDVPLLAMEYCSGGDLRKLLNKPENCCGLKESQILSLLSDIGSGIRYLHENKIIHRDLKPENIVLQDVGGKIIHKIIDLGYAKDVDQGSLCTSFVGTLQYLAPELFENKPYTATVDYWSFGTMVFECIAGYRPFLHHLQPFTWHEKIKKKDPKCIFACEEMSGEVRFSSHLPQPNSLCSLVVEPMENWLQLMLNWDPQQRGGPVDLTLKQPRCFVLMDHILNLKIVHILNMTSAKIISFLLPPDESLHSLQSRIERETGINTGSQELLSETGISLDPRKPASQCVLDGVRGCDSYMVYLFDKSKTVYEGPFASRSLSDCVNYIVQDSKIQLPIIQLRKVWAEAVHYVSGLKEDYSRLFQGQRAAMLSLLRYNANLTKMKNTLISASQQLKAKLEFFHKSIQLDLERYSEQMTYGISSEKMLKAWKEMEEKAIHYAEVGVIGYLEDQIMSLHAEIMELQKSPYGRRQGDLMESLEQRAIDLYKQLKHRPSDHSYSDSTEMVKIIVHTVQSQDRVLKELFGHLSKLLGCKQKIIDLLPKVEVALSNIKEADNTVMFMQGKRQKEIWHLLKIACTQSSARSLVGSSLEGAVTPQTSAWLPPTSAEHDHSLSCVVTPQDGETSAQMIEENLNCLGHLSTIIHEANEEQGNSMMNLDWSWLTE
STK24 (human), sequence (Q9Y6E0 whole entry, looked up): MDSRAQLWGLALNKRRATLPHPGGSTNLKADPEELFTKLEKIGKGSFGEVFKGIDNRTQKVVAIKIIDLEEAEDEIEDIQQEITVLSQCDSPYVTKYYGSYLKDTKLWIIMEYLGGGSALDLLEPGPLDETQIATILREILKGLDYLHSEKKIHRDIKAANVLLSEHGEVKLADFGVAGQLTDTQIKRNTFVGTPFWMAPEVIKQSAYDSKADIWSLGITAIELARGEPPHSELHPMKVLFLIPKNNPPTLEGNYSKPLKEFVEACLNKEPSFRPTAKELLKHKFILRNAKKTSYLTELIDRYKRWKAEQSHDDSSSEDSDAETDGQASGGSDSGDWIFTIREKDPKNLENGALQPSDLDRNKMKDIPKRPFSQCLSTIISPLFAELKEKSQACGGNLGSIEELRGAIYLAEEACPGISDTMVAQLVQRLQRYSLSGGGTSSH
CSNK2A1 (human), sequence (P68400 whole entry, looked up): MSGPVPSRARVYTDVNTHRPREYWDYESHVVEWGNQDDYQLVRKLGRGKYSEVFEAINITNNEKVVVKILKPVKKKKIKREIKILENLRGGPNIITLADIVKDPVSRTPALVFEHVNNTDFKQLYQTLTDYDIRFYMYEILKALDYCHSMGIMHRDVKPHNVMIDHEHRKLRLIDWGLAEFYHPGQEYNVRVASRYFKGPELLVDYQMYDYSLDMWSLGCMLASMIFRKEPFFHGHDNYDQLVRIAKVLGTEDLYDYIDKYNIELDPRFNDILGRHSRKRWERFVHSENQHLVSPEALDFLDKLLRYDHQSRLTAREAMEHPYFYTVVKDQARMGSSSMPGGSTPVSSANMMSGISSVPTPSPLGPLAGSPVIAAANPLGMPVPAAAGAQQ
MAP3K7 (human), sequence (O43318 whole entry, looked up): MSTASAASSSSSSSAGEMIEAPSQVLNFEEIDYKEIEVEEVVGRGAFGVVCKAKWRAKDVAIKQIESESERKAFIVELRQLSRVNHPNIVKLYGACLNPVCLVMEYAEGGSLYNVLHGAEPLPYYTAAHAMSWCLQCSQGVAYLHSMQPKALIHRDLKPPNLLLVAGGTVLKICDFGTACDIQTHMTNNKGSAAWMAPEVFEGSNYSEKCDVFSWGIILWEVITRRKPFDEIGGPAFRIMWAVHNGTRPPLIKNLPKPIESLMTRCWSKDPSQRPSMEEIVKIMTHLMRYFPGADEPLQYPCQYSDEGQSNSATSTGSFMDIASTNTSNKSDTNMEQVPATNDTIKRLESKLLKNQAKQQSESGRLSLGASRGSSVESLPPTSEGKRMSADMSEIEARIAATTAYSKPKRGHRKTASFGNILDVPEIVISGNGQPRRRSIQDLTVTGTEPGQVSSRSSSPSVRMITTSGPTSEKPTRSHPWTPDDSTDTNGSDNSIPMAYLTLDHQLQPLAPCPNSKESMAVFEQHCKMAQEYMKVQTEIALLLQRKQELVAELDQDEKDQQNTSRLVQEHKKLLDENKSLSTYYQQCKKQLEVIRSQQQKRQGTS
TSSK1B (human), sequence (Q9BXA7 whole entry, looked up): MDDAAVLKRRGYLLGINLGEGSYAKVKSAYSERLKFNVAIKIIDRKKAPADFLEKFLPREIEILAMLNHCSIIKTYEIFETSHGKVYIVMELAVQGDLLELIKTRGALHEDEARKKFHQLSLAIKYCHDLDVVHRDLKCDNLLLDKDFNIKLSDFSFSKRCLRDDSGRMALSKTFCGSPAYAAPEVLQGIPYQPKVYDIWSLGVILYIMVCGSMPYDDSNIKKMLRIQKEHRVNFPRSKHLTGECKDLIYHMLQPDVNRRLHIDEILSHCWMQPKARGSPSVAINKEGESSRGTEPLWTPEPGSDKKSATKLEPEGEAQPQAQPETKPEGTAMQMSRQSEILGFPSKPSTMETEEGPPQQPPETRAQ
RPS6KA6 KD1 (human), sequence (Q9UK32 whole entry, looked up): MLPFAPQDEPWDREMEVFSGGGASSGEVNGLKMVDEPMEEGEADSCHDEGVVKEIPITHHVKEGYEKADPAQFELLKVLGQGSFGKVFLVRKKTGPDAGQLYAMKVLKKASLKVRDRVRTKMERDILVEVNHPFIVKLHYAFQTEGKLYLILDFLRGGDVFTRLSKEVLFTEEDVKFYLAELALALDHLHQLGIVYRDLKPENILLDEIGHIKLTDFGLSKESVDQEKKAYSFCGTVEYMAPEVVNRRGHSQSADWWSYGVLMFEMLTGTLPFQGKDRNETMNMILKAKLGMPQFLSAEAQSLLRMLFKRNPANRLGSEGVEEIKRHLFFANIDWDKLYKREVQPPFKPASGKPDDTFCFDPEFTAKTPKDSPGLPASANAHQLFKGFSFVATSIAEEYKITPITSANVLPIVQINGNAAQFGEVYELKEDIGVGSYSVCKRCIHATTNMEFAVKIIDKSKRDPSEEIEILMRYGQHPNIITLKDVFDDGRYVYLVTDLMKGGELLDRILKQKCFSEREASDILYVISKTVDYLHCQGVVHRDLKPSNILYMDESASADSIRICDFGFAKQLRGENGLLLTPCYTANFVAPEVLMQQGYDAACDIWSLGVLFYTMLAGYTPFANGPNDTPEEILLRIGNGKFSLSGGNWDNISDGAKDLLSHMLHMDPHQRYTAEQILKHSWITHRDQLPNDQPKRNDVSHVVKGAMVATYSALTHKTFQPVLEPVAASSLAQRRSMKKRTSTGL
AURKB (human), sequence (Q96GD4 whole entry, looked up): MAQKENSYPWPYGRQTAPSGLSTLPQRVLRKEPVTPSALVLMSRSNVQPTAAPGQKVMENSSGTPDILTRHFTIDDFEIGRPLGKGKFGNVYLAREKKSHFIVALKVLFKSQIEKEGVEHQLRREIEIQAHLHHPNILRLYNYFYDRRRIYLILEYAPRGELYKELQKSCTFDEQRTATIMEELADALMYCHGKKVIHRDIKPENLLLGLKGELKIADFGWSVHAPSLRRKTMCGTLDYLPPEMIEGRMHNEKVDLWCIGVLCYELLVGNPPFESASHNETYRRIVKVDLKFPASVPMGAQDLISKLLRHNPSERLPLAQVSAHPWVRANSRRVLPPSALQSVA

Row | Compound | kinase still bound, per cent of control (AURKB (human)) [%] | kinase still bound, per cent of control (CDK9 (human)) [%] | kinase still bound, per cent of control (CHUK (human)) [%] | kinase still bound, per cent of control (CSNK2A1 (human)) [%] | kinase still bound, per cent of control (ICK (human)) [%] | kinase still bound, per cent of control (MAP3K13 (human)) [%] | kinase still bound, per cent of control (MAP3K7 (human)) [%] | kinase still bound, per cent of control (MAP3K9 (human)) [%] | kinase still bound, per cent of control (MAPK12 (human)) [%] | kinase still bound, per cent of control (MAPK6 (human)) [%] | kinase still bound, per cent of control (NEK5 (human)) [%] | kinase still bound, per cent of control (PAK3 (human)) [%] | kinase still bound, per cent of control (PAK6 (human)) [%] | kinase still bound, per cent of control (PIK3C2B (human)) [%] | kinase still bound, per cent of control (PIK3CB (human)) [%] | kinase still bound, per cent of control (PRKCE (human)) [%] | kinase still bound, per cent of control (PRKD1 (human)) [%] | kinase still bound, per cent of control (PRPF4B (human)) [%] | kinase still bound, per cent of control (PTK2 (human)) [%] | kinase still bound, per cent of control (RIPK4 (human)) [%] | also measured
1 | CCCS(=O)(=O)Nc1ccc(F)c(C(=O)c2c[nH]c3ncc(Cl)cc23)c1F | 29 | 86 | 89 | 18 | 63 | 100 | 51 | 94 | 100 | 100 | 100 | 34 | 45 | 84 | 100 | 100 | 31 | 82 | 51 | 89 | kinase still bound, per cent of control (CDK16 (human)): 68%; kinase still bound, per cent of control (DAPK1 (human)): 89%; kinase still bound, per cent of control [1]: 77%; kinase still bound, per cent of control (EPHA7 (human)): 99%; kinase still bound, per cent of control (FLT4 (human)): 61%; kinase still bound, per cent of control (FRK (human)): 19%; kinase still bound, per cent of control (IRAK4 (human)): 86%; kinase still bound, per cent of control (MTOR (human)): 58%; kinase still bound, per cent of control (RPS6KA5 KD1 (human)): 100%; kinase still bound, per cent of control (RPS6KA6 KD1 (human)): 80%; kinase still bound, per cent of control (SGK110 (human)): 100%; kinase still bound, per cent of control (SIK2 (human)): 84%; kinase still bound, per cent of control (SRPK2 (human)): 100%; kinase still bound, per cent of control (STK24 (human)): 77%; kinase still bound, per cent of control (STK32C (human)): 86%; kinase still bound, per cent of control (TIE1 (human)): 61%; kinase still bound, per cent of control (TNK2 (human)): 8.2%; kinase still bound, per cent of control (TNNI3K (human)): 75%; kinase still bound, per cent of control (TSSK1B (human)): 83%
2 | Cc1cn(-c2cc(C(=O)Nc3ccc(C)c(NC(=O)c4ccno4)c3)cc(C(F)(F)F)c2)cn1 | 100 | 100 | 100 | 100 | 100 | 100 | 100 | 100 | 100 | 100 | 100 | 100 | 100 | 100 | 100 | 100 | 100 | 100 | 100 | 100 | kinase still bound, per cent of control (CDK16 (human)): 100%; kinase still bound, per cent of control (CaMK1 (human)): 100%; kinase still bound, per cent of control (DAPK1 (human)): 100%; kinase still bound, per cent of control [1]: 100%; kinase still bound, per cent of control (EPHA7 (human)): 100%; kinase still bound, per cent of control (FLT4 (human)): 100%; kinase still bound, per cent of control (FRK (human)): 0.85%; kinase still bound, per cent of control (RPS6KA5 KD1 (human)): 100%; kinase still bound, per cent of control (RPS6KA6 KD1 (human)): 100%; kinase still bound, per cent of control (SGK110 (human)): 100%; kinase still bound, per cent of control (SIK2 (human)): 100%; kinase still bound, per cent of control (SRPK2 (human)): 100%; kinase still bound, per cent of control (STK24 (human)): 100%; kinase still bound, per cent of control (STK32C (human)): 100%; kinase still bound, per cent of control (TIE1 (human)): 100%; kinase still bound, per cent of control (TNK2 (human)): 100%; kinase still bound, per cent of control (TNNI3K (human)): 29%; kinase still bound, per cent of control (TSSK1B (human)): 100%
3 | CCN(CCO)CCCOc1ccc2c(Nc3cc(CC(=O)Nc4cccc(F)c4)[nH]n3)ncnc2c1 | 0.2 | 82 | 100 | 84 | 74 | 100 | 16 | 98 | 89 | 100 | 100 | 57 | 98 | 58 | 81 | 100 | 72 | 67 | 64 | 41 | kinase still bound, per cent of control (CaMK1 (human)): 69%; kinase still bound, per cent of control (DAPK1 (human)): 80%; kinase still bound, per cent of control (EPHA7 (human)): 74%; kinase still bound, per cent of control (FLT4 (human)): 38%; kinase still bound, per cent of control (FRK (human)): 90%; kinase still bound, per cent of control (IRAK4 (human)): 76%; kinase still bound, per cent of control (MTOR (human)): 100%; kinase still bound, per cent of control (RPS6KA5 KD1 (human)): 100%; kinase still bound, per cent of control (RPS6KA6 KD1 (human)): 74%; kinase still bound, per cent of control (SGK110 (human)): 100%; kinase still bound, per cent of control (SIK2 (human)): 70%; kinase still bound, per cent of control (SRPK2 (human)): 92%; kinase still bound, per cent of control (STK24 (human)): 43%; kinase still bound, per cent of control (STK32C (human)): 78%; kinase still bound, per cent of control (TNK2 (human)): 100%; kinase still bound, per cent of control (TNNI3K (human)): 100%; kinase still bound, per cent of control (TSSK1B (human)): 87%
4 | CC(=O)c1c(C)c2cnc(Nc3ccc(N4CCNCC4)cn3)nc2n(C2CCCC2)c1=O | 48 | 27 | 83 | 0.05 | 38 | 82 | 7.9 | 78 | 59 | 57 | 27 | 20 | 66 | 98 | 7.3 | 67 | 0.85 | 78 | 61 | 79 | kinase still bound, per cent of control (CDK16 (human)): 0.2%; kinase still bound, per cent of control (CaMK1 (human)): 35%; kinase still bound, per cent of control (IRAK4 (human)): 39%; kinase still bound, per cent of control (MTOR (human)): 40%; kinase still bound, per cent of control (RPS6KA6 KD1 (human)): 20%; kinase still bound, per cent of control (SIK2 (human)): 63%; kinase still bound, per cent of control (SRPK2 (human)): 68%; kinase still bound, per cent of control (STK24 (human)): 16%; kinase still bound, per cent of control (STK32C (human)): 94%; kinase still bound, per cent of control (TNK2 (human)): 92%; kinase still bound, per cent of control (TNNI3K (human)): 98%; kinase still bound, per cent of control (TSSK1B (human)): 8%
